The values that follow come from patent publication US8563562B2, “Compounds having antiviral properties” (priority 2008, dated 2013).

Assay in all cases: PhenoScreen (Phenosense) assay, single-round luciferase pseudotyped HIV
Holding throughout (format): cell-based

One test relates to HIV WT integrase. The settings on record: Human immunodeficiency virus 1, read-out: Activity, Phenosense assay, WT. From the text: (§1) Monogram Bioscience' PhenoScreen assay allows the evaluation of integrase inhibitors for activity against a variety of HIV variants. The assay uses virus generated from 2 DNA constructs; one containing the HIV LTR, gag and pol regions, as well as a luciferase reporter gene in place of the viral envelope genes, and a second DNA construct containing the amphotrophic murine leukemia virus (A-MLV) envelope gene required to pseudotype virions and render them capable of entry into a target cell. Viruses generated using these constructs by transfection into a producer cell line such as 293T are capable of one-round of infection only. Successful integration events are directly proportional to the levels of luciferase expression 48 h after infection.
(§2) The viral variants chosen by the present inventors to screen integration inhibitors consist of mutations within the viral integrase enzyme known to confer resistance to a number of known integration inhibitors published in the literature. In particular, the viral variants containing the Q148H/G140S double mutation in integrase, and the N155H/E92Q double mutation in integrase, represent two of the more common viruses identified to arise in patients that are failing treatment with Isentress (Raltegravir, MK-0518).

Test [1] has as its system HIV variant E92Q/N155H integrase. The settings on record: for EC50: Human immunodeficiency virus 1, read-out: Activity, Phenosense assay, E92Q/N155H.
Description: as §1, §2

The test system of test [2] is HIV variant G140S/Q148H integrase. The following applies: Human immunodeficiency virus 1, read-out: Activity, Phenosense assay, G140S Q148H.
Description: as §1, §2

In test [3] the test system is HIV variant T125K/F121Y integrase. The settings on record: for EC50: Human immunodeficiency virus 1, read-out: Activity, Phenosense assay, T125K F121Y.
Description: as §1, §2

In test [4] the test system is HIV variant T661/S153Y integrase. The following applies: Human immunodeficiency virus 1, read-out: Activity, Phenosense assay, T661 S153Y.
Description: as §1, §2

Test [5] relates to HIV variant Y143R integrase. The following applies: for EC50: Human immunodeficiency virus 1, read-out: Activity, Phenosense assay, Y143R.
Description: as §1, §2

For the molecule `O=c1c(O)c(-c2ncc(Cc3ccc(F)cc3)o2)nc2c(I)cc(N3CCOCC3)cn12` [Example 4, 2-[5-(4-fluoro-benzyl)-oxazol-2-yl]-3-hydroxy-9-iodo-7-morpholin-4-yl-pyrido[1,2-a]pyrimidin-4-one], the EC50 with HIV WT integrase was 1 to 100 nM; in test [1], 1 to 100 nM; in test [2], over 10000 nM; in test [3] it was 1 to 100 nM; in test [4], 1 to 100 nM; in test [5], 1 to 100 nM. Also, in test [1] (footnote b, E92Q/N155H mutant), the “improvement in activity over comparative example 3, E92Q/N155H” value was “b 2-fold improvement in activity over comparative example 3”. Besides, the “improvement in activity over comparative example 3, T125K F121Y” value in test [3] (footnote a, T125K/F121Y mutant) is listed as “a 2.5-fold improvement in activity over comparative example 3”. Further, the “improvement in activity over comparative example 3, Y143R” value in test [5] (footnote a, Y143R mutant) is reported as “a 2.5-fold improvement in activity over comparative example 3”.

Turning to `O=c1c(O)c(-c2ncc(Cc3ccc(F)cc3)o2)nc2ccc(N3CCOCC3)cn12` [Example 7, 2-[5-(4-fluoro-benzyl)-oxazol-2-yl]-3-hydroxy-7-morpholin-4-yl-pyrido[1,2-a]pyrimidin-4-one], the EC50 in the test with HIV WT integrase was in the range of 1 to 100 nM; in test [1] it was 100 to 1000 nM; in test [2] it was 1000 to 10000 nM; in test [3], 100 to 1000 nM; in test [4], 1 to 100 nM; in test [5], 1 to 100 nM.

As for `O=C(NCc1ccc(F)cc1)c1nc2c(I)cc(N3CCOCC3)cn2c(=O)c1O` [Comparative example 3, reference compound], the EC50 was 1 to 100 nM in the test with HIV WT integrase; 1 to 100 nM in test [1]; over 10000 nM in test [2]; 1 to 100 nM in test [3]; 1 to 100 nM in test [4]; 1 to 100 nM in test [5].

With `Cc1ccc2nc(-c3ncc(Cc4ccc(F)cc4)s3)c(O)c(=O)n2c1` [Comparative example 2, reference compound], the EC50 in the test on HIV WT integrase lay in the range of 100 to 1000 nM; in test [1] it was 1000 to 10000 nM; in test [2], 1000 to 10000 nM; in test [3], 100 to 1000 nM; in test [4], 100 to 1000 nM; in test [5], 100 to 1000 nM.

Turning to `O=c1c(O)c(-c2ncc(Cc3ccc(Cl)c(Cl)c3)s2)nc2ccc(N3CCOCC3)cn12` [Example 42, 2-[5-(3,4-Dichloro-benzyl)-thiazol-2-yl]-3-hydroxy-7-morpholin-4-yl-pyrido[1,2-a]pyrimidin-4-one], the EC50 with HIV WT integrase lay within 100 to 1000 nM; in test [1] it was 100 to 1000 nM; in test [2], 1000 to 10000 nM; in test [3], 100 to 1000 nM; in test [4] it was 100 to 1000 nM; in test [5], 100 to 1000 nM.
